Laboratory results from patent EP0969013B1, “Peptides for inhibiting HPV E7 proteins” (Deutsches Krebsforschungszentrum Stiftung des öffentlichen …, priority 1998, dated 2003).
Peptide text beside a SMILES is read from it.

How the values were obtained:
Assay type in all cases: cell-based
E7/2 cells [1] = experiment: Growth rate of E7/2 cells (cell number); details: 10 µM - 200 µM penetratin-fused synthesized peptide, 1 hour to 72 hours
Protocol: (§1) • (A) Peptide No. 732 is chemically synthesized with a leader attached to the NH2 end and supporting the incorporation into cells. It is penetratin and originates from Drosophila antennapedia. Thus, peptide No. 732 is available as fusion polypeptide and has the following sequence: [formula] Cells are used in which HPV16 E7 is expressed and whose growth depends thereon. Such cells are e.g. E7/2 cells. They are transfected with 10 µM - 200 µM of the synthesized peptide No. 732. Growth rate, apoptosis and cell cycle profiles of the cells are determined 1 hour to 72 hours after the transfection. The former is effected by determining the cell number. As regards the second test, reference is made to Example 2 (A). As to the latter test, the cell DNA is stained with propidium iodide and its content is determined in a FACscan. On the basis thereof, the cell cycle profile is assessed by means of the CellQuest program (Schulze, A. et al., Proc. Natl. Acad. Sci, U.S.A. 92, (1995), 11264-11268), the number of cells in the S phase being taken as a marker for the cell proliferation. […] For this purpose, the BamHI/NdeI fragment (cf. Example 1) of pJM-1 is inserted in the vector pET 19b (Novagen company) so as to obtain the vector pH6-732. Thereafter, cleavage is carried out by means of Ndel and a TAT-cDNA of HIV-1 (Vives, E. et al., J. Biol. Chem. 272, (1997), 16010-16017) is inserted. […]

E7/2 cells [2] = experiment: Apoptosis of E7/2 cells (propidium iodide, FACscan); details: 10 µM - 200 µM penetratin-fused synthesized peptide, 1 hour to 72 hours
Protocol: 24 hours after the transfection, the cells are fixed and stained using propidium iodide. The cells are analyzed in a FACscan by measuring the fluorescence caused by propidium iodide. Apoptotic nuclei are shown as nuclei having a DNA content of less than 2N. The amount of apoptotic nuclei is determined in comparison with normal nuclei.
• (A) Peptide No. 732 is chemically synthesized with a leader attached to the NH2 end and supporting the incorporation into cells. It is penetratin and originates from Drosophila antennapedia. Thus, peptide No. 732 is available as fusion polypeptide and has the following sequence: [formula] Cells are used in which HPV16 E7 is expressed and whose growth depends thereon. Such cells are e.g. E7/2 cells. They are transfected with 10 µM - 200 µM of the synthesized peptide No. 732. Growth rate, apoptosis and cell cycle profiles of the cells are determined 1 hour to 72 hours after the transfection. The former is effected by determining the cell number. […] As to the latter test, the cell DNA is stained with propidium iodide and its content is determined in a FACscan. On the basis thereof, the cell cycle profile is assessed by means of the CellQuest program (Schulze, A. et al., Proc. Natl. Acad. Sci, U.S.A. 92, (1995), 11264-11268), the number of cells in the S phase being taken as a marker for the cell proliferation. […]

E7/2 cells [3] = experiment: Cell cycle profile of E7/2 cells (propidium iodide, FACscan, CellQuest); details: 10 µM - 200 µM penetratin-fused synthesized peptide, 1 hour to 72 hours, marker for cell proliferation
Protocol: as §1

## CC[C@H](C)[C@H](NC(=O)[C@H](CCCCN)NC(=O)[C@H](CCCCN)NC(=O)[C@H](Cc1c[nH]c2ccccc12)NC(=O)[C@H](CCCCN)NC(=O)[C@H](CCSC)NC(=O)[C@H](CCCNC(=N)N)NC(=O)[C@H](CCCNC(=N)N)NC(=O)[C@H](CC(N)=O)NC(=O)[C@H](CCC(N)=O)NC(=O)[C@H](Cc1ccccc1)NC(=O)[C@H](Cc1c[nH]c2ccccc12)NC(=O)[C@@H](NC(=O)[C@H](CCCCN)NC(=O)[C@@H](NC(=O)[C@H](CCC(N)=O)NC(=O)[C@@H](N)CCCNC(=N)N)[C@@H](C)CC)[C@@H](C)CC)C(=O)N[C@@H](C)C(=O)N[C@@H](C)C(=O)N[C@@H](CCCNC(=N)N)C(=O)N[C@@H](CC(C)C)C(=O)N[C@@H](CCCNC(=N)N)C(=O)N[C@@H](CC(C)C)C(=O)N[C@@H](CCCNC(=N)N)C(=O)N[C@@H](CS)C(=O)NCC(=O)N[C@H](C(=O)N[C@H](C(=O)N[C@@H](CC(C)C)C(=O)N[C@@H](CC(C)C)C(=O)N[C@@H](CC(C)C)C(=O)N[C@@H](CS)C(=O)N[C@H](C(=O)N[C@@H](CC(C)C)C(=O)N[C@@H](CC(=O)O)C(=O)N[C@@H](CC(C)C)C(=O)O)[C@@H](C)O)[C@@H](C)CC)C(C)C [peptide No. 732] (H-RQIKIWFQNRRMKWKKIAARLRLRCGVILLLCTLDL-OH)
E7/2 cells [1]
  growth rate: reduces the growth rate
E7/2 cells [2]
  apoptosis frequency: lowers the apoptosis frequency
E7/2 cells [3]
  number of cells in the S phase: reduces the number of cells in the S phase
